Literature values as cited in patent US20110177137A1, “NOVEL DOSAGE FORM OF PALIPERIDONE AND PROCESS FOR PREPARING THE SAME” (INTAS PHARMACEUTICALS LIMITED, priority 2008, published 2011).

In the case of `Cc1nc2n(c(=O)c1CCN1CCC(c3noc4cc(F)ccc34)CC1)CCCC2O` (stereo not drawn) [Paliperidone], the “solubility in 0.1 N HCl” value (0.1 N HCl) is listed as “soluble”, the “solubility in methyl chloride” value (methyl chloride) is listed as “partly soluble” and the solubility in water (water) is listed as “insoluble”.
